Measurements from US9149038B2, “4-amino-6-(heterocyclic)picolinates and 6-amino-2-(heterocyclic)pyrimidine-4-carboxylates and their use as herbicides” (Dow AgroSciences LLC, priority 2013, dated 2015).
Read-outs that look alike come from different tables or passages of the source.

Test system: Direct Seeded Rice and weed species
Experiment: Postemergence herbicidal activity in direct seeded rice, visual rating after 20-22 days and probit GR20/GR50/GR80/GR90 (Table 14)
Format: in vivo
Settings: for pest or weed control at 17.5 g/ha / pest or weed control at 35 g/ha / pest or weed control at 70 g/ha: post-emergence, 504 h, postemergence; for pest or weed control at 17.5 g/ha: 17.5 g ai/ha; for pest or weed control at 35 g/ha: 35 g ai/ha; for pest or weed control at 70 g/ha: 70 g ai/ha
Procedure, shortened: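 Visual injury scores (0 = none, 100 = complete kill) taken 20-22 days after treatment and fitted by probit analysis over several doses to give GR20/GR50/GR80/GR90. Plants at 2nd–3rd true leaf in pH about 8.1 loam–sand mix received track-sprayer applications of 187 L/ha containing 1.25% (v/v) crop oil concentrate.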

[1] = BRAPP (broadleaf signalgrass, Brachiaria platyphylla), read-out: Visual Growth Reduction (%) 21 Days After Application BRAPP
[2] = CYPDI (small-flower flatsedge, Cyperus difformis), read-out: Visual Growth Reduction (%) 21 Days After Application CYPDI
[3] = CYPES (yellow nutsedge, Cyperus esculentus), read-out: Visual Growth Reduction (%) 21 Days After Application CYPES
[4] = CYPIR (rice flatsedge, Cyperus iria), read-out: Visual Growth Reduction (%) 21 Days After Application CYPIR
[5] = DIGSA (large crabgrass, Digitaria sanguinalis), read-out: Visual Growth Reduction (%) 21 Days After Application DIGSA
[6] = ECHCG (barnyardgrass, Echinochloa crus-galli), read-out: Visual Growth Reduction (%) 21 Days After Application ECHCG
[7] = ECHCO (junglerice, Echinochloa colonum), read-out: Visual Growth Reduction (%) 21 Days After Application ECHCO
[8] = LEFCH (Chinese sprangletop, Leptochloa chinensis), read-out: Visual Growth Reduction (%) 21 Days After Application LEFCH
[9] = ORYSJ (Oryza sativa, rice crop), read-out: Visual Growth Reduction (%) 21 Days After Application ORYSJ
[10] = ORYSK (Oryza sativa, rice crop), read-out: Visual Growth Reduction (%) 21 Days After Application ORYSK
[11] = SCPJU (Japanese bulrush, Schoenoplectus juncoides Roxb.), read-out: Visual Growth Reduction (%) 21 Days After Application SCPJU
[12] = SEBEX (hemp sesbania, Sesbania exaltata), read-out: Visual Growth Reduction (%) 21 Days After Application SEBEX

SMILES: COc1c(N)nc(-c2ccc3c(c2F)OC(F)(F)O3)nc1C(=O)O [Compound 66]
- GR50 BRAPP (BRAPP (Brachiaria platyphylla), probit analysis, dose for 50 percent growth reduction): 2 g ai/ha
- GR80 BRAPP (BRAPP (Brachiaria platyphylla), probit analysis, dose for 80 percent growth reduction): 7 g ai/ha
- GR90 BRAPP (BRAPP (Brachiaria platyphylla), probit analysis, dose for 90 percent growth reduction): 16 g ai/ha
- GR50 CYPDI (CYPDI (Cyperus difformis), probit analysis, dose for 50 percent growth reduction): 0.42 g ai/ha
- GR80 CYPDI (CYPDI (Cyperus difformis), probit analysis, dose for 80 percent growth reduction): 3 g ai/ha
- GR90 CYPDI (CYPDI (Cyperus difformis), probit analysis, dose for 90 percent growth reduction): 6 g ai/ha
- GR50 CYPES (CYPES (Cyperus esculentus), probit analysis, dose for 50 percent growth reduction): 0.0001 g ai/ha
- GR80 CYPES (CYPES (Cyperus esculentus), probit analysis, dose for 80 percent growth reduction): 0.0001 g ai/ha
- GR90 CYPES (CYPES (Cyperus esculentus), probit analysis, dose for 90 percent growth reduction): 0.0001 g ai/ha
- GR50 CYPIR (CYPIR (Cyperus iria), probit analysis, dose for 50 percent growth reduction): 9 g ai/ha
- GR80 CYPIR (CYPIR (Cyperus iria), probit analysis, dose for 80 percent growth reduction): 15 g ai/ha
- GR90 CYPIR (CYPIR (Cyperus iria), probit analysis, dose for 90 percent growth reduction): 19 g ai/ha
- GR50 DIGSA (DIGSA (Digitaria sanguinalis), probit analysis, dose for 50 percent growth reduction): 2 g ai/ha
- GR80 DIGSA (DIGSA (Digitaria sanguinalis), probit analysis, dose for 80 percent growth reduction): 21 g ai/ha
- GR90 DIGSA (DIGSA (Digitaria sanguinalis), probit analysis, dose for 90 percent growth reduction): 77 g ai/ha
- GR50 ECHCG (ECHCG (Echinochloa crus-galli), probit analysis, dose for 50 percent growth reduction): 3 g ai/ha
- GR80 ECHCG (ECHCG (Echinochloa crus-galli), probit analysis, dose for 80 percent growth reduction): 7 g ai/ha
- GR90 ECHCG (ECHCG (Echinochloa crus-galli), probit analysis, dose for 90 percent growth reduction): 12 g ai/ha
- GR50 ECHCO (ECHCO (Echinochloa colonum), probit analysis, dose for 50 percent growth reduction): 2 g ai/ha
- GR80 ECHCO (ECHCO (Echinochloa colonum), probit analysis, dose for 80 percent growth reduction): 6 g ai/ha
- GR90 ECHCO (ECHCO (Echinochloa colonum), probit analysis, dose for 90 percent growth reduction): 11 g ai/ha
- GR50 LEFCH (LEFCH (Leptochloa chinensis), probit analysis, dose for 50 percent growth reduction): 105 g ai/ha
- GR80 LEFCH (LEFCH (Leptochloa chinensis), probit analysis, dose for 80 percent growth reduction): 227 g ai/ha
- GR90 LEFCH (LEFCH (Leptochloa chinensis), probit analysis, dose for 90 percent growth reduction): 339 g ai/ha
- GR20 ORYSJ (ORYSJ (Oryza sativa, rice crop), probit analysis, dose for 20 percent growth reduction): 2 g ai/ha
- GR20 ORYSK (ORYSK (Oryza sativa, rice crop), probit analysis, dose for 20 percent growth reduction): 11 g ai/ha
- GR50 SCPJU (SCPJU (Schoenoplectus juncoides Roxb.), probit analysis, dose for 50 percent growth reduction): 0.0001 g ai/ha
- GR80 SCPJU (SCPJU (Schoenoplectus juncoides Roxb.), probit analysis, dose for 80 percent growth reduction): 0.0001 g ai/ha
- GR90 SCPJU (SCPJU (Schoenoplectus juncoides Roxb.), probit analysis, dose for 90 percent growth reduction): 0.0001 g ai/ha
- GR50 SEBEX (SEBEX (Sesbania exaltata), probit analysis, dose for 50 percent growth reduction): 8 g ai/ha
- GR80 SEBEX (SEBEX (Sesbania exaltata), probit analysis, dose for 80 percent growth reduction): 19 g ai/ha
- GR90 SEBEX (SEBEX (Sesbania exaltata), probit analysis, dose for 90 percent growth reduction): 28 g ai/ha
- pest or weed control at 17.5 g/ha [1]: 85 to 94%
- pest or weed control at 35 g/ha [1]: 95 to 100%
- pest or weed control at 70 g/ha [1]: 95 to 100%
- pest or weed control at 17.5 g/ha [2]: 95 to 100%
- pest or weed control at 35 g/ha [2]: 95 to 100%
- pest or weed control at 70 g/ha [2]: 95 to 100%
- pest or weed control at 17.5 g/ha [3]: 95 to 100%
- pest or weed control at 35 g/ha [3]: 95 to 100%
- pest or weed control at 70 g/ha [3]: 95 to 100%
- pest or weed control at 17.5 g/ha [4]: 95 to 100%
- pest or weed control at 35 g/ha [4]: 95 to 100%
- pest or weed control at 70 g/ha [4]: 95 to 100%
- pest or weed control at 17.5 g/ha [5]: 75 to 84%
- pest or weed control at 35 g/ha [5]: 85 to 94%
- pest or weed control at 70 g/ha [5]: 85 to 94%
- pest or weed control at 17.5 g/ha [6]: 95 to 100%
- pest or weed control at 35 g/ha [6]: 95 to 100%
- pest or weed control at 70 g/ha [6]: 95 to 100%
- pest or weed control at 17.5 g/ha [7]: 95 to 100%
- pest or weed control at 35 g/ha [7]: 95 to 100%
- pest or weed control at 70 g/ha [7]: 95 to 100%
- pest or weed control at 17.5 g/ha [8]: 0 to 29%
- pest or weed control at 35 g/ha [8]: 0 to 29%
- pest or weed control at 70 g/ha [8]: 30 to 44%
- pest or weed control at 17.5 g/ha [9]: 60 to 74%
- pest or weed control at 35 g/ha [9]: 85 to 94%
- pest or weed control at 70 g/ha [9]: 85 to 94%
- pest or weed control at 17.5 g/ha [10]: 30 to 44%
- pest or weed control at 35 g/ha [10]: 60 to 74%
- pest or weed control at 70 g/ha [10]: 85 to 94%
- pest or weed control at 17.5 g/ha [11]: 95 to 100%
- pest or weed control at 35 g/ha [11]: 95 to 100%
- pest or weed control at 70 g/ha [11]: 95 to 100%
- pest or weed control at 17.5 g/ha [12]: 60 to 74%
- pest or weed control at 35 g/ha [12]: 95 to 100%
- pest or weed control at 70 g/ha [12]: 95 to 100%
